Data published in ChEMBL document CHEMBL1201862, “PubChem BioAssay data set” (2004).
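In this assay, cells in 96-well plates receive the compound at five concentrations for 48 hours. Endpoints are linearly interpolated between the surrounding concentrations. GI50 = concentration required for 50% inhibition of growth.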 Active and inactive are the calls of the source. No stated cut-off is given here; in the data, active = GI50 up to about 1.1 µM and inactive = higher.

Tests used:
Assay in all cases: growth of human tumour cells (NCI), 48 h
OVCAR-4 = system: OVCAR-4
SK-MEL-2 = system: SK-MEL-2
COLO 205 = system: COLO 205
CCRF-CEM = system: CCRF-CEM
SK-OV-3 = system: SK-OV-3
NCI-H23 = system: NCI-H23
MOLT-4 = system: MOLT-4
SF-295 = system: SF-295
Malme-3M = system: Malme-3M
KM12 = system: KM12
U-251 = system: U-251
K562 = system: K562
UO-31 = system: UO-31
OVCAR-5 = system: OVCAR-5
OVCAR-8 = system: OVCAR-8
UACC-257 = system: UACC-257
M14 = system: M14
SF-268 = system: SF-268

Measured: GI50

O=C(NC12CC3CC(CC(C3)C1)C2)C(=O)c1c[nH]c2ccc([N+](=O)[O-])cc12
inactive: OVCAR-4 7.59 µM | SK-MEL-2 > 59.8 µM | COLO 205 24.5 µM | CCRF-CEM > 44.9 µM | SK-OV-3 76.6 µM | NCI-H23 38.7 µM | MOLT-4 > 100 µM | SF-295 6.18 µM | Malme-3M 24.7 µM | KM12 33.7 µM | U-251 10.9 µM | K562 49 µM | UO-31 > 47.2 µM | OVCAR-5 > 87.5 µM | OVCAR-8 19 µM | UACC-257 85.5 µM | M14 34 µM | SF-268 9.48 µM

O=C(Nc1nnn[nH]1)c1nc(O)cc(-c2ccccc2)n1
inactive: OVCAR-4 > 100 µM | SK-MEL-2 > 100 µM | COLO 205 > 100 µM | CCRF-CEM > 100 µM | SK-OV-3 > 100 µM | NCI-H23 > 100 µM | MOLT-4 > 100 µM | SF-295 > 100 µM | Malme-3M > 100 µM | KM12 > 100 µM | U-251 > 100 µM | K562 > 100 µM | UO-31 > 100 µM | OVCAR-5 > 100 µM | OVCAR-8 > 100 µM | UACC-257 > 100 µM | M14 > 100 µM | SF-268 > 100 µM

O=[N+]([O-])c1nccn1COCCBr
inactive: OVCAR-4 > 100 µM | SK-MEL-2 > 100 µM | COLO 205 > 10 µM | CCRF-CEM > 100 µM | SK-OV-3 > 100 µM | NCI-H23 > 100 µM | MOLT-4 > 100 µM | SF-295 > 100 µM | Malme-3M > 100 µM | KM12 > 100 µM | U-251 > 100 µM | K562 > 100 µM | UO-31 > 100 µM | OVCAR-5 > 100 µM | OVCAR-8 > 100 µM | UACC-257 > 100 µM | M14 > 100 µM | SF-268 > 100 µM

CC(C)C12C=CC(C)(CC1)n1c(=O)c3cc4ccccc4cc3c(=O)n12 (configuration not stated)
inactive: OVCAR-4 43.9 µM | SK-MEL-2 48.3 µM | COLO 205 41.9 µM | CCRF-CEM 43.1 µM | SK-OV-3 52.1 µM | NCI-H23 52 µM | MOLT-4 30.8 µM | SF-295 73.5 µM | Malme-3M 42.9 µM | KM12 50.8 µM | U-251 76 µM | K562 34.4 µM | UO-31 24.9 µM | OVCAR-5 40.7 µM | OVCAR-8 75.9 µM | UACC-257 63.1 µM | M14 76.4 µM | SF-268 67.3 µM
